For this test, the target named is T1, mutant Patched G509VD513Y (hPtcVXXXY) expressed in yeasts (Homo sapiens, UniProt Q13635, D513Y/G509V).
T1 construct: MAP; expressed in transfected cells; host or cells: Saccharomyces cerevisiae K699
T1 sequence (Q13635 1-1447 G509V/D513Y): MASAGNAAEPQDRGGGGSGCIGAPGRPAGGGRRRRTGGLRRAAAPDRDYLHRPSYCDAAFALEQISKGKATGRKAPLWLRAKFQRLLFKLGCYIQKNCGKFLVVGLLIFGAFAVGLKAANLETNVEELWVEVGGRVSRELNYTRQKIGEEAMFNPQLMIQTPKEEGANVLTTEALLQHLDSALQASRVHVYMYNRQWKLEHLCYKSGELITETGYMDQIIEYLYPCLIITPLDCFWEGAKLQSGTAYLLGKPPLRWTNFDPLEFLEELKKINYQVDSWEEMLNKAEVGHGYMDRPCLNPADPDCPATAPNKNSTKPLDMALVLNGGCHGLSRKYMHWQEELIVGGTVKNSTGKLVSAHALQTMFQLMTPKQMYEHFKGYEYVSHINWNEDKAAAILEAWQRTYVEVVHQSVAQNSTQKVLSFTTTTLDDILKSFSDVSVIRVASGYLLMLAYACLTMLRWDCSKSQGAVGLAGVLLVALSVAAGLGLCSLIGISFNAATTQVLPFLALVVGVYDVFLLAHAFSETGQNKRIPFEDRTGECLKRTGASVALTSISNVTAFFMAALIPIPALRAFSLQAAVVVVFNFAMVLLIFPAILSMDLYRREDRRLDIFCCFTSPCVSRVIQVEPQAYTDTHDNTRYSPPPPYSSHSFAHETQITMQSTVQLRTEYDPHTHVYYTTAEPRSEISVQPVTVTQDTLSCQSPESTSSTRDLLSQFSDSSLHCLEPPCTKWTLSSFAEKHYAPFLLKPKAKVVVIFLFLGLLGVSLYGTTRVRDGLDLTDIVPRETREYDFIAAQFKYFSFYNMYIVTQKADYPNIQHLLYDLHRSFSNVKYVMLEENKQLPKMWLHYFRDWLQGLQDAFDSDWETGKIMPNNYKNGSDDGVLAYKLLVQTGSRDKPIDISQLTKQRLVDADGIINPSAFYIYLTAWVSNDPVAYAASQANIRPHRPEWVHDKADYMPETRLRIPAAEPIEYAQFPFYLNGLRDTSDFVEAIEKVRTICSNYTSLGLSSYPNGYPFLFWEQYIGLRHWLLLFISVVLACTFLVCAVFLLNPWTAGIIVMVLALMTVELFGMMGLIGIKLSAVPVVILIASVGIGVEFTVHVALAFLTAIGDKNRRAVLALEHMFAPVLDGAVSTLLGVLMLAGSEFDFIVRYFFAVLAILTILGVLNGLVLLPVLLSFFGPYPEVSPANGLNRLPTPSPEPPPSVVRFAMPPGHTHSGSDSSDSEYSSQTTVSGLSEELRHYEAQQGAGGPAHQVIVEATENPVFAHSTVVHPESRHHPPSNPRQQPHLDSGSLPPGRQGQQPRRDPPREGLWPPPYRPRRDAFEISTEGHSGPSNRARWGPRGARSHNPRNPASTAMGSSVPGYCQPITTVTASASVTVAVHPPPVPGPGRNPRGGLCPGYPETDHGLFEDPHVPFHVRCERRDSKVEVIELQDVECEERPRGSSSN
Nature of the test: Doxorubicin efflux from yeasts (intracellular dxr fluorescence). It is filed as cell-based. As to conditions: hPtc-YXXXG-yeasts (mutant Patched), 10 μM paniceins, 10 min, 5 mM 2-deoxy-D-glucose. On the procedure:
A. Compound P5 inhibits doxorubicin efflux from melanoma cells MeWo and A375. Cells were grown on cover-slips, incubated for 2 hour at 37° C. with 10 μM doxorubicin and quickly rinsed with phosphate buffer (pH 7.4). One cover-slip of each cell line was immediately fixed for doxorubicin charge control. The other cover-slips were incubated with buffer supplemented with DMSO or 10 μM of compound P5 30 min under gentle shaking and immediately fixed. Dxr intracellular fluorescence was visualized by epifluorescence and analyzed using Image J software on more than 30 cells of 3 different fields for each condition. The results were analyzed using the Student t test in which significance is attained at P<0.05 (**: P<0.005, ***: P<0.0005). B. Paniceins inhibit doxorubicin efflux from Patched-expressing yeasts. Yeasts expressing wild-type Patched (hPtc, in black), mutant Patched G509VD513Y (hPtcVXXXY, in grey), and control yeasts (in white) were incubated in buffer supplemented with 5 mM of 2-deoxy-D-glucose and 10 μM dxr for 2 hours at 4° C. After centrifugation and supernatant removing, one sample was immediately fixed for charge control and the other samples were resuspended in buffer containing 5 mM of 2-deoxy-D-glucose supplemented with DMSO or 10 μM of paniceins 10 minutes at 25° C. with gentle shaking. After centrifugation and supernatant removing, samples were fixed and deposited on coverslips for epifluorescence microscopy observation. Dxr intracellular fluorescence quantification was carried out using Image J software on more than 30 yeasts on 3 different fields for each condition. The results were analyzed using the Student t test in which significance is attained at P<0.05 (*).
On yeasts: Yeasts expressing Patched (hPtc), mutant Patched (hPtcG509VD513Y), or control yeasts were washed with cold water, resuspended at an OD600 of 10 in Hepes-NaOH buffer (pH 7.0) supplemented with 5 mM of 2-deoxy-D-glucose, and incubated with 10 μM doxorubicin for 2 hours at 4° C. in the cold room on a rotating wheel protected from light. Yeasts were centrifuged and the supernatant was removed. One sample was immediately fixed with 4% paraformaldehyde for doxorubicin loading control. The other samples were resuspended in Hepes-NaOH buffer (pH 7.0) containing 5 mM of 2-deoxy-D-glucose supplemented with DMSO or 10 μM of paniceins, and incubated 10 minutes at 20° C. with gentle shaking in a Benchmark Multi-therm shaker protected from light. Samples were centrifuged for 1 minute at 18,000 g, supernatants were removed and yeasts were fixed with 4% paraformaldehyde. 10 μL of each sample were deposited on a coverslip and observed by epifluorescence microscopy using an objective 63x and filters for Alexa 594. Quantification of doxorubicin intracellular fluorescence was carried out using Image J software on more than 30 yeasts on 3 different fields for each condition. The results were analyzed using the Student t test in which significance is attained at P <0.05.
In order to see if Paniceins inhibit dxr efflux through Patched inhibition, inventors compared dxr efflux on yeasts over-expressing human Patched and control yeasts. After loading with dxr, yeasts were centrifuged and fixed for dxr loading control (LC), or resuspended in buffer supplemented with DMSO or paniceins for efflux measurements. After 10 min a 20° C., yeasts were collected, fixed and deposited on cover-slips. 2-deoxy-D-glucose was added in buffer during loading and efflux in order to inhibit ATP-binding cassette (ABC) transporters. Dxr fluorescence intensity of at least 30 yeasts was measured for each experiment. FIGS. 6A and 12A show the mean fluorescence intensity of 3 independent experiments. […] This was confirmed using yeasts over-expressing Patched mutant VXXXY. […] Yeasts over-expressing hPtcVXXXY are less resistance to growth inhibition by dxr than yeasts over-expressing wild-type hPtc (Bidet et al., 2012).
Take `C/C(=C\Cc1cc(O)ccc1O)CCc1c(C)c(O)c(O)c(C=O)c1C` [P2, Panicein C]: the “Efflux (%) of dxr” value came to 39%.

Regarding `C/C(=C\Cc1cc(O)ccc1O)CCc1c(C)cc(O)c(C=O)c1C` [P3, Panicein B3], the “Efflux (%) of dxr” value amounted to 32%. Regarding `Cc1cc(O)c(C=O)c(C)c1CCC1(C)C=Cc2cc(O)ccc2O1` (stereo not shown) [P4, Panicein B2], the “Efflux (%) of dxr” value was determined as 38%. Under `COc1cc(C)c(CC/C(C)=C/Cc2cc(O)ccc2O)c(C)c1C` [P5, Panicein A hydroquinone] stands 42%.

Values taken from patent publication US10376476B2, “Panicein compounds, compositions and uses thereof” (CENTRE NATIONAL DE LA RECHERCHE SCIENTIFIQUE, priority 2014, dated 2019).
